Experimental data from patent publication US5510371A, “Inhibitors of farnesyl-protein transferase” (Merck & Co., Inc., priority 1994, dated 1996).

Molecular target: T1, human recombinant farnesyl-protein transferase (Homo sapiens, UniProt P49354+P49356)
T1 construct: made in house; host or cells: Escherichia coli
Experiment: In vitro inhibition of ras farnesyl transferase
Format: biochemical
Details: 50 nM 3H-FPP, 0.1 μM ras-CVIM, 2 μg human recombinant FPTase, pH 7.5, 30 minutes at 31° C.; read-out: LC50 (nM) (IC50: concentration of the test compound which gives 50% inhibition of FPTase)
Method: In vitro inhibition of ras farnesyl transferase
Human FPTase was expressed in Escherichia coli and then the recombinant protein was purified as described by Omer, et al., Biochemistry 32, 5167 (1993). The assay was performed in a volume of 100 μl containing 100 mM N-(2-hydroxy ethyl) piperazine-N'-(2-ethane sulfonic acid) (HEPES), pH 7.5, 5 mM MgCl2, 5 mM dithiothreitol (DTT), 10 μM ZnCl2, 0.1% (w/v) polyethylene glycol 20,000, 50 nM 3H!-Farnesyl Pyrophosphate ( 3H!-FPP, […], NEN-DuPont), 0.1 μM ras-CVIM and 2 μg of human recombinant farnesyl-protein transferase. The assay was run in the presence of the compound(s) for 30 minutes at 31° C. and then quenched by placing the tubes in an ice bath for 5 minutes. Trichloracetic acid (TCA, 0.1 ml of 30% (v/v) in ethanol followed by 50 μl of 0.25% (w/v) Bovine Serum Albumin in water was added to the tubes, vortexed for 5 minutes then placed in a 37° C. water bath for 30 minutes to facilitate the hydrolysis of the unused farnesyl pyrophosphate. The precipitate was collected on a Packard double thickness filtermat, using a Tomtec Mach II Cell Harvester and washed with 8 ml of 100% Ethanol. The filtermats were dried in a microwave oven and counted in a LKB Betaplate counter. The compounds were dissolved in dimethyl sulfoxide and were diluted 20-fold into the assay.
Inhibition of RAS farnesylation by compounds of this invention* […]

T1 sequence (P49356 whole entry, one chain of several): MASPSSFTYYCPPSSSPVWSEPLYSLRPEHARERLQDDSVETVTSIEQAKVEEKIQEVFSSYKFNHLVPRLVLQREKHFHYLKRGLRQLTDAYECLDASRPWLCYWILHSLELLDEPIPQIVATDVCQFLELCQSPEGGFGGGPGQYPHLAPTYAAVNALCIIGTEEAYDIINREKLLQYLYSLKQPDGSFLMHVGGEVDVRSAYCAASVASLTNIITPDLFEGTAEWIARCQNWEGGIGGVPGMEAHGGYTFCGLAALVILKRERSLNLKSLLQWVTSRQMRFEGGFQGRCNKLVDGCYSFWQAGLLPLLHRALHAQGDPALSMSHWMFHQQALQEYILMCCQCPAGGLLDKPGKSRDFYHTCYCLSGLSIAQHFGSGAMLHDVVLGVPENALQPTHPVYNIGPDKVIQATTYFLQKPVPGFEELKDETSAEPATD

**Q.** `CCC(CC(C)C(=O)O)C(=O)CCC1=CC(C)CC(C)=CC(C)C(O)C(C)CCC(CCCCC=CC(C)CCC(C)OC(=O)CC(CC(=O)O)C(=O)O)OC(=O)CC(C(=O)O)CC(=O)OC1` (stereo not shown) [Compound 1, 1,2,3-propanetricarboxylic acid 1-10-4-carboxy 19-(6-carboxy-4-ethyl-3-oxoheptyl)-12-hydroxy-11,13,15,17-tetramethyl-2,6-dioxo-1,7-dioxacycloeiocosa-14,18-dien-8-yl!-1,4-dimethyl-5-decenyl! ester] was tested. Which IC50 did it give?
**A.** 230 nM
